Experimental data as given in patent US20210045385A1, “PYRIDAZINONE-SUBSTITUTED KETOXIMES AS HERBICIDES” (FMC Corporation, priority 2018, published 2021).

How the values were obtained:
Type in all cases: in vivo
corn (Zea mays) = assay: Test C postemergence, visual plant response rating
Description: (§1) Seeds of plant species selected from barnyardgrass (Echinochloa crus-galli), kochia (Bassia scoparia), ragweed (common ragweed, Ambrosia artemisiifolia), Italian ryegrass (Lolium mutiflorum), foxtail, giant (giant foxtail, Setaria faberi), foxtail, green (green foxtail, Setaria viridis), and pigweed (Amaranthus retroflexus) were planted into a blend of loam soil and sand and treated preemergence with a directed soil spray using test chemicals formulated in anon-phytotoxic solvent mixture which included a surfactant.
(§2) At the same time, plants selected from these weed species and also wheat (Triticum aestivum), corn (Zea mays), blackgrass (Alopecurus myosuroides), and galium (catchweed bedstraw, Galium aparine) were planted in pots containing the same blend of loam soil and sand and treated with post emergence applications of test chemicals formulated in the same manner. Plants ranged in height from 2 to 10 cm and were in the one- to two-leaf stage for the postemergence treatment. Treated plants and untreated controls were maintained in a greenhouse for approximately 10 d, after which time all treated plants were compared to untreated controls and visually evaluated for injury. Plant response ratings, summarized in Table C, are based on a 0 to 100 scale where 0 is no effect and 100 is complete control. A dash (-)response means no test result.

[1] = test system: pigweed (Amaranthus retroflexus); assay: Test C postemergence, visual plant response rating
Description: as §1, §2

[2] = test system: wheat (Triticum aestivum); assay: Test C postemergence, visual plant response rating
Description: as §1, §2

[3] = test system: barnyardgrass (Echinochloa crus-galli); assay: Test C postemergence, visual plant response rating
Description: as §1, §2

[4] = test system: Italian ryegrass (Lolium mutiflorum); assay: Test C postemergence, visual plant response rating
Description: as §1, §2

[5] = test system: foxtail, giant (giant foxtail, Setaria faberi); assay: Test C postemergence, visual plant response rating
Description: as §1, §2

[6] = test system: ragweed (common ragweed, Ambrosia artemisiifolia); assay: Test C postemergence, visual plant response rating
Description: as §1, §2

[7] = test system: galium (catchweed bedstraw, Galium aparine); assay: Test C postemergence, visual plant response rating
Description: as §1, §2

[8] = test system: blackgrass (Alopecurus myosuroides); assay: Test C postemergence, visual plant response rating
Description: as §1, §2

kochia (Bassia scoparia) [9] = assay: Test C postemergence, visual plant response rating
Description: as §1, §2

[10] = test system: duck salad (Heteranthera limosa); assay: Test D flooded paddy test, visual plant response rating; settings: 250 g ai/ha, scale 0 to 100 (0 no effect, 100 complete control), 13 to 15 d
Procedure: (§3) Plant species in the flooded paddy test selected from rice (Oryza sativa), sedge umbrella (small-flower umbrella sedge, Cyperus difformis) duck salad (Heteranthera limosa), and barnyardgrass (Echinochloa crus-galli) were grown to the 2-leaf stage for testing. At time of treatment, test pots were flooded to 3 cm above the soil surface, treated by application of test compounds directly to the paddy water, and then maintained at that water depth for the duration of the test. Treated plants and controls were maintained in a greenhouse for 13 to 15 d, after which time all species were compared to controls and visually evaluated. Plant response ratings, summarized in Table D, are based on a scale of 0 to 100 where 0 is no effect and 100 is complete control. A dash (-) response means no test result.

[11] = test system: barnyardgrass (Echinochloa crus-galli); assay: as above; settings: 250 g ai/ha, scale 0 to 100 (0 no effect, 100 complete control), 13 to 15 d
Procedure: as §3

rice (Oryza sativa) = assay: as above; settings: 250 g ai/ha, scale 0 to 100 (0 no effect, 100 complete control), 13 to 15 d
Procedure: as §3

[12] = test system: sedge umbrella (small-flower umbrella sedge, Cyperus difformis); assay: as above; settings: 250 g ai/ha, scale 0 to 100 (0 no effect, 100 complete control), 13 to 15 d
Procedure: as §3

[13] = test system: pigweed (Amaranthus retroflexus); assay: Test C preemergence, visual plant response rating
Description: as §1, §2

[14] = test system: barnyardgrass (Echinochloa crus-galli); assay: Test C preemergence, visual plant response rating
Description: as §1, §2

[15] = test system: Italian ryegrass (Lolium mutiflorum); assay: Test C preemergence, visual plant response rating
Description: as §1, §2

[16] = test system: foxtail, giant (giant foxtail, Setaria faberi); assay: Test C preemergence, visual plant response rating
Description: as §1, §2

kochia (Bassia scoparia) [17] = assay: Test C preemergence, visual plant response rating
Description: as §1, §2

[18] = Test C, postemergence, 125 g ai/ha
[19] = Test C, 31 g ai/ha, 0 is no effect, 100 is complete control

Structure (SMILES)	Corn plant response rating (0 to 100 scale) (corn (Zea mays); Postemergence, 31 g ai/ha)	Corn plant response rating (0 to 100 scale) (corn (Zea mays); [18])	Pigweed plant response rating (0 to 100 scale) ([1]; Postemergence, 31 g ai/ha)	Pigweed plant response rating (0 to 100 scale) [1, 18]	Wheat plant response rating (0 to 100 scale) ([2]; Postemergence, 31 g ai/ha)	Wheat plant response rating (0 to 100 scale) [2, 18]	Barnyardgrass plant response rating (0 to 100 scale) ([3]; Postemergence, 31 g ai/ha)	Barnyardgrass plant response rating (0 to 100 scale) [3, 18]	Ryegrass, Italian plant response rating (0 to 100 scale) ([4]; Postemergence, 31 g ai/ha)	Ryegrass, Italian plant response rating (0 to 100 scale) [4, 18]	Foxtail, Giant plant response rating (0 to 100 scale) ([5]; Postemergence, 31 g ai/ha)	Foxtail, Giant plant response rating (0 to 100 scale) [5, 18]	Ragweed plant response rating (0 to 100 scale) ([6]; Postemergence, 31 g ai/ha)	Ragweed plant response rating (0 to 100 scale) [6, 18]	Galium plant response rating (0 to 100 scale) ([7]; Postemergence, 31 g ai/ha)	Galium plant response rating (0 to 100 scale) [7, 18]	Blackgrass plant response rating (0 to 100 scale) ([8]; Postemergence, 31 g ai/ha)	Blackgrass plant response rating (0 to 100 scale) [8, 18]	Kochia plant response rating (0 to 100 scale) (kochia (Bassia scoparia) [9]; Postemergence, 31 g ai/ha)	Kochia plant response rating (0 to 100 scale) (kochia (Bassia scoparia) [9]; [18])	also measured
CCCCO/N=C(\c1cc(Cl)cc(Cl)c1Cl)c1c(O)c(C)nn(C)c1=O [Compound 183]	0	0	0	10	0	0	0	40	40	60	30	80	20	100	10	30	0	0	0	10	Plant response rating, Ducksalad (Flood) [10]: 0; Plant response rating, Barnyardgrass (Flood) [11]: 0; Plant response rating, Rice (Flood) (rice (Oryza sativa)): 0; Plant response rating, Sedge, Umbrella (Flood) [12]: 0; Pigweed plant response rating (0 to 100 scale) ([13]; 125 g ai/ha): 10; Pigweed plant response rating (0 to 100 scale) [13, 19]: 0; Barnyardgrass plant response rating (0 to 100 scale) ([14]; 125 g ai/ha): 70; Barnyardgrass plant response rating (0 to 100 scale) [14, 19]: 0; Ryegrass, Italian plant response rating (0 to 100 scale) ([15]; 125 g ai/ha): 80; Ryegrass, Italian plant response rating (0 to 100 scale) [15, 19]: 0; Foxtail, Giant plant response rating (0 to 100 scale) ([16]; 125 g ai/ha): 100; Foxtail, Giant plant response rating (0 to 100 scale) [16, 19]: 40; Kochia plant response rating (0 to 100 scale) (kochia (Bassia scoparia) [17]; 125 g ai/ha): 0; Kochia plant response rating (0 to 100 scale) (kochia (Bassia scoparia) [17]; [19]): 0
C#CCO/N=C(\c1cc(Cl)cc(Cl)c1Cl)c1c(O)c(C)nn(C)c1=O [Compound 184]	0	10	10	20	0	0	50	60	0	80	60	80	60	100	60	90	0	0	10	10	Plant response rating, Ducksalad (Flood) [10]: 0; Plant response rating, Barnyardgrass (Flood) [11]: 0; Plant response rating, Rice (Flood) (rice (Oryza sativa)): 0; Plant response rating, Sedge, Umbrella (Flood) [12]: 0; Pigweed plant response rating (0 to 100 scale) ([13]; 125 g ai/ha): 60; Pigweed plant response rating (0 to 100 scale) [13, 19]: 50; Barnyardgrass plant response rating (0 to 100 scale) ([14]; 125 g ai/ha): 90; Barnyardgrass plant response rating (0 to 100 scale) [14, 19]: 0; Ryegrass, Italian plant response rating (0 to 100 scale) ([15]; 125 g ai/ha): 100; Ryegrass, Italian plant response rating (0 to 100 scale) [15, 19]: 0; Foxtail, Giant plant response rating (0 to 100 scale) ([16]; 125 g ai/ha): 100; Foxtail, Giant plant response rating (0 to 100 scale) [16, 19]: 60; Kochia plant response rating (0 to 100 scale) (kochia (Bassia scoparia) [17]; 125 g ai/ha): 0; Kochia plant response rating (0 to 100 scale) (kochia (Bassia scoparia) [17]; [19]): 0
Cc1nn(C)c(=O)c(/C(=N/OC(C)C)c2cc(Cl)cc(Cl)c2Cl)c1O [Compound 185]	0	20	40	100	50	80	10	60	70	100	60	90	90	100	70	100	10	30	10	50	Plant response rating, Ducksalad (Flood) [10]: 85; Plant response rating, Barnyardgrass (Flood) [11]: 45; Plant response rating, Rice (Flood) (rice (Oryza sativa)): 60; Plant response rating, Sedge, Umbrella (Flood) [12]: 95; Pigweed plant response rating (0 to 100 scale) ([13]; 125 g ai/ha): 100; Pigweed plant response rating (0 to 100 scale) [13, 19]: 70; Barnyardgrass plant response rating (0 to 100 scale) ([14]; 125 g ai/ha): 70; Barnyardgrass plant response rating (0 to 100 scale) [14, 19]: 0; Ryegrass, Italian plant response rating (0 to 100 scale) ([15]; 125 g ai/ha): 100; Ryegrass, Italian plant response rating (0 to 100 scale) [15, 19]: 10; Foxtail, Giant plant response rating (0 to 100 scale) ([16]; 125 g ai/ha): 100; Foxtail, Giant plant response rating (0 to 100 scale) [16, 19]: 90; Kochia plant response rating (0 to 100 scale) (kochia (Bassia scoparia) [17]; 125 g ai/ha): 50; Kochia plant response rating (0 to 100 scale) (kochia (Bassia scoparia) [17]; [19]): 0
CCO/N=C(\c1cc(Cl)cc(Cl)c1Cl)c1c(O)c(C)nn(C)c1=O [Compound 186]	0	20	20	90	20	70	30	70	80	100	60	90	50	90	90	100	10	20	50	50	Plant response rating, Ducksalad (Flood) [10]: 0; Plant response rating, Barnyardgrass (Flood) [11]: 0; Plant response rating, Rice (Flood) (rice (Oryza sativa)): 0; Plant response rating, Sedge, Umbrella (Flood) [12]: 0; Pigweed plant response rating (0 to 100 scale) ([13]; 125 g ai/ha): 100; Pigweed plant response rating (0 to 100 scale) [13, 19]: 50; Barnyardgrass plant response rating (0 to 100 scale) ([14]; 125 g ai/ha): 90; Barnyardgrass plant response rating (0 to 100 scale) [14, 19]: 40; Ryegrass, Italian plant response rating (0 to 100 scale) ([15]; 125 g ai/ha): 100; Ryegrass, Italian plant response rating (0 to 100 scale) [15, 19]: 40; Foxtail, Giant plant response rating (0 to 100 scale) ([16]; 125 g ai/ha): 100; Foxtail, Giant plant response rating (0 to 100 scale) [16, 19]: 100; Kochia plant response rating (0 to 100 scale) (kochia (Bassia scoparia) [17]; 125 g ai/ha): 0; Kochia plant response rating (0 to 100 scale) (kochia (Bassia scoparia) [17]; [19]): 0
